Key:
[1] = system: BT-549; assay: NCI-60 SRB growth inhibition, one-dose and five-dose; format: cell-based; settings: Homo sapiens
[2] = system: HCC-2998; assay: as above; format: cell-based; settings: Homo sapiens
[3] = system: SF-268; assay: as above; format: cell-based; settings: Homo sapiens
[4] = system: NCI-H23; assay: as above; format: cell-based; settings: Homo sapiens
[5] = system: M14; assay: as above; format: cell-based; settings: Homo sapiens
[6] = system: IGROV1; assay: as above; format: cell-based; settings: Homo sapiens
[7] = system: HT29; assay: as above; format: cell-based; settings: Homo sapiens
[8] = system: HCT-116; assay: as above; format: cell-based; settings: Homo sapiens
[9] = system: NCI-H460; assay: as above; format: cell-based; settings: Homo sapiens
[10] = system: SK-OV-3; assay: as above; format: cell-based; settings: Homo sapiens
[11] = system: NCI/ADR-RES; assay: as above; format: cell-based; settings: Homo sapiens
[12] = system: ACHN; assay: as above; format: cell-based; settings: Homo sapiens
[13] = system: OVCAR-3; assay: as above; format: cell-based; settings: Homo sapiens
[14] = system: T-47D; assay: as above; format: cell-based; settings: Homo sapiens, T47D
[15] = system: SK-MEL-2; assay: as above; format: cell-based; settings: Homo sapiens
[16] = system: NCI-H522; assay: as above; format: cell-based; settings: Homo sapiens
[17] = system: TK-10; assay: as above; format: cell-based; settings: Homo sapiens
[18] = system: SK-MEL-5; assay: as above; format: cell-based; settings: Homo sapiens
[19] = system: 786-0; assay: as above; format: cell-based; settings: Homo sapiens
[20] = system: EKVX; assay: as above; format: cell-based; settings: Homo sapiens
[21] = system: U251; assay: as above; format: cell-based; settings: Homo sapiens
[22] = system: K-562; assay: as above; format: cell-based; settings: Homo sapiens
[23] = system: MCF7; assay: as above; format: cell-based; settings: Homo sapiens
[24] = system: OVCAR-4; assay: as above; format: cell-based; settings: Homo sapiens
[25] = system: COLO 205; assay: as above; format: cell-based; settings: Homo sapiens
[26] = system: CCRF-CEM; assay: as above; format: cell-based; settings: Homo sapiens
[27] = system: KM12; assay: as above; format: cell-based; settings: Homo sapiens
[28] = system: A498; assay: as above; format: cell-based; settings: Homo sapiens
[29] = system: MALME-3M; assay: as above; format: cell-based; settings: Homo sapiens
[30] = system: NCI 60-cell line panel (full panel); assay: NCI-60 SRB growth inhibition, full panel mean / MG-MID; format: cell-based, human
[31] = system: LOX IMVI; assay: NCI-60 SRB growth inhibition, one-dose and five-dose; format: cell-based; settings: Homo sapiens
[32] = system: UACC-62; assay: as above; format: cell-based; settings: Homo sapiens
[33] = system: HOP-92; assay: as above; format: cell-based; settings: Homo sapiens
[34] = system: NCI-H322M; assay: as above; format: cell-based; settings: Homo sapiens
[35] = system: OVCAR-5; assay: as above; format: cell-based; settings: Homo sapiens
[36] = system: NCI-H226; assay: as above; format: cell-based; settings: Homo sapiens
[37] = system: SK-MEL-28; assay: as above; format: cell-based; settings: Homo sapiens
[38] = system: HS 578 T; assay: as above; format: cell-based; settings: Homo sapiens
[39] = system: SNB-75; assay: as above; format: cell-based; settings: Homo sapiens
[40] = system: HCT-15; assay: as above; format: cell-based; settings: Homo sapiens
[41] = system: PC-3; assay: as above; format: cell-based; settings: Homo sapiens
[42] = system: HOP-62; assay: as above; format: cell-based; settings: Homo sapiens
[43] = read-out: percent growth inhibition

CC(=O)Nc1ccc(/C=C/C(=O)c2cccc(NCc3ccc(CO)cc3)c2)cc1 [Compound 5j, (E)-N-(4–(3-(3-((4-(hydroxymethyl)benzyl)amino)phenyl)-3-oxoprop-1-en-1-yl)phenyl) acetamide] was tested. Which GI50 ([1]; BT-549) did it give?
Its GI50 is 12.1 µM.

And the inhibition at 10 µM ([1]; BT-549, read-out: percent growth inhibition)?
Its inhibition at 10 µM is 119%.

And the GI50 ([2]; HCC 2998)?
The GI50 was 13.2 µM.

And the inhibition at 10 µM ([2]; HCC 2998, read-out: percent growth inhibition)?
Its inhibition at 10 µM is 199%.

And the GI50 ([3]; SF-268)?
Its GI50 is 15.4 µM.

And the inhibition at 10 µM ([3]; SF-268, read-out: percent growth inhibition)?
The inhibition at 10 µM was 88.8%.

What about the GI50 ([4]; NCI-H23) of the same compound?
Its GI50 is 13.9 µM.

What about the inhibition at 10 µM ([4]; NCI-H23, read-out: percent growth inhibition) of the same compound?
The inhibition at 10 µM was 95.9%.

What about the GI50 ([5]; M14) of the same compound?
The GI50 was 14.3 µM.

And the inhibition at 10 µM ([5]; M14, read-out: percent growth inhibition)?
Its inhibition at 10 µM is 146%.

What about the GI50 ([6]; IGROV-1) of the same compound?
Its GI50 is 6.71 µM.

And the inhibition at 10 µM ([6]; IGROV-1, read-out: percent growth inhibition)?
The inhibition at 10 µM was 119%.

And the GI50 ([7]; HT-29)?
The GI50 was 6.06 µM.

And the inhibition at 10 µM ([7]; HT-29, read-out: percent growth inhibition)?
Its inhibition at 10 µM is 180%.

And the GI50 ([8]; HCT-116, HCT-116, five-dose screening)?
The GI50 was 3.35 µM.

What about the inhibition at 10 µM ([8]; HCT-116, read-out: percent growth inhibition) of the same compound?
Its inhibition at 10 µM is 193%.

And the GI50 ([9]; NCI-H460)?
Its GI50 is 13.4 µM.

What about the inhibition at 10 µM ([9]; NCI-H460, read-out: percent growth inhibition) of the same compound?
Its inhibition at 10 µM is 148%.

And the GI50 ([10]; SK-OV-3)?
Its GI50 is 16.3 µM.

What about the inhibition at 10 µM ([10]; SK-OV-3, read-out: percent growth inhibition) of the same compound?
The inhibition at 10 µM was 4.73%.

And the GI50 [11]?
Its GI50 is 16.8 µM.

What about the inhibition at 10 µM [11, 43] of the same compound?
Its inhibition at 10 µM is 126%.

What about the GI50 [12] of the same compound?
Its GI50 is 10.3 µM.

And the inhibition at 10 µM [12, 43]?
The inhibition at 10 µM was 155%.

What about the GI50 ([13]; OVCAR-3) of the same compound?
The GI50 was 4.63 µM.

What about the inhibition at 10 µM ([13]; OVCAR-3, read-out: percent growth inhibition) of the same compound?
Its inhibition at 10 µM is 138%.

What about the GI50 [14] of the same compound?
Its GI50 is 13.5 µM.

What about the inhibition at 10 µM [14, 43] of the same compound?
Its inhibition at 10 µM is 70.2%.

What about the GI50 ([15]; SK-MEL-2) of the same compound?
The GI50 was 15.3 µM.

And the inhibition at 10 µM ([15]; SK-MEL-2, read-out: percent growth inhibition)?
Its inhibition at 10 µM is 53.9%.

And the GI50 ([16]; NCI-H522)?
The GI50 was 5 µM.

What about the inhibition at 10 µM ([16]; NCI-H522, read-out: percent growth inhibition) of the same compound?
The inhibition at 10 µM was 178%.

And the GI50 ([17]; TK-10)?
The GI50 was 16.1 µM.

What about the inhibition at 10 µM ([17]; TK-10, read-out: percent growth inhibition) of the same compound?
The inhibition at 10 µM was 95.1%.

What about the GI50 ([18]; SK-MEL-5) of the same compound?
The GI50 was 10.2 µM.

And the inhibition at 10 µM ([18]; SK-MEL-5, read-out: percent growth inhibition)?
Its inhibition at 10 µM is 183%.

What about the GI50 ([19]; 786-0) of the same compound?
Its GI50 is 14.1 µM.

What about the inhibition at 10 µM ([19]; 786-0, read-out: percent growth inhibition) of the same compound?
The inhibition at 10 µM was 186%.

What about the GI50 [20] of the same compound?
Its GI50 is 14.4 µM.

What about the inhibition at 10 µM [20, 43] of the same compound?
Its inhibition at 10 µM is 88.9%.

And the GI50 ([21]; U-251)?
Its GI50 is 3.6 µM.

And the inhibition at 10 µM ([21]; U-251, read-out: percent growth inhibition)?
Its inhibition at 10 µM is 195%.

And the GI50 ([22]; K562)?
Its GI50 is 3.43 µM.

What about the inhibition at 10 µM ([22]; K562, read-out: percent growth inhibition) of the same compound?
The inhibition at 10 µM was 104%.

And the GI50 ([23]; MCF7)?
The GI50 was 3.19 µM.

What about the inhibition at 10 µM ([23]; MCF7, read-out: percent growth inhibition) of the same compound?
The inhibition at 10 µM was 126%.

And the GI50 ([24]; OVCAR-4)?
The GI50 was 14.8 µM.

And the inhibition at 10 µM ([24]; OVCAR-4, read-out: percent growth inhibition)?
The inhibition at 10 µM was 75.5%.

And the GI50 ([25]; COLO 205)?
Its GI50 is 16 µM.

And the inhibition at 10 µM ([25]; COLO 205, read-out: percent growth inhibition)?
The inhibition at 10 µM was 150%.

What about the GI50 [26] of the same compound?
The GI50 was 8.8 µM.

What about the inhibition at 10 µM [26, 43] of the same compound?
The inhibition at 10 µM was 121%.

What about the GI50 ([27]; KM12) of the same compound?
The GI50 was 3.93 µM.

And the inhibition at 10 µM ([27]; KM12, read-out: percent growth inhibition)?
Its inhibition at 10 µM is 158%.

And the GI50 ([28]; A498)?
The GI50 was 15 µM.

What about the inhibition at 10 µM ([28]; A498, read-out: percent growth inhibition) of the same compound?
Its inhibition at 10 µM is 3.83%.

What about the GI50 [29] of the same compound?
Its GI50 is 11 µM.

And the inhibition at 10 µM [29, 43]?
The inhibition at 10 µM was 141%.

What about the GI50 ([30]; Homo sapiens, 60 cell, read-out: Full panel GI50 mean) of the same compound?
The GI50 was 10.3 µM.

And the “Full panel Mean GI %” value ([30]; mean over NCI-60 panel, single dose 10 µM)?
Its value is 120.44%.

What about the GI50 [31] of the same compound?
Its GI50 is 2.96 µM.

What about the inhibition at 10 µM [31, 43] of the same compound?
Its inhibition at 10 µM is 194%.

And the GI50 ([32]; UACC-62)?
The GI50 was 10.8 µM.

And the inhibition at 10 µM ([32]; UACC-62, read-out: percent growth inhibition)?
Its inhibition at 10 µM is 156%.

What about the GI50 ([33]; HOP-92) of the same compound?
The GI50 was 14.1 µM.

And the inhibition at 10 µM ([33]; HOP-92, read-out: percent growth inhibition)?
Its inhibition at 10 µM is 34.6%.

What about the GI50 [34] of the same compound?
Its GI50 is 14.4 µM.

What about the inhibition at 10 µM [34, 43] of the same compound?
The inhibition at 10 µM was 38.8%.

What about the GI50 ([35]; OVCAR-5) of the same compound?
The GI50 was 12.6 µM.

And the inhibition at 10 µM ([35]; OVCAR-5, read-out: percent growth inhibition)?
The inhibition at 10 µM was 74%.

And the GI50 ([36]; NCI-H226)?
The GI50 was 13.7 µM.

What about the inhibition at 10 µM ([36]; NCI-H226, read-out: percent growth inhibition) of the same compound?
The inhibition at 10 µM was 138%.

And the GI50 ([37]; SK-MEL-28)?
Its GI50 is 13.4 µM.

What about the inhibition at 10 µM ([37]; SK-MEL-28, read-out: percent growth inhibition) of the same compound?
The inhibition at 10 µM was 167%.

And the GI50 [38]?
Its GI50 is 18.9 µM.

And the inhibition at 10 µM [38, 43]?
Its inhibition at 10 µM is 57.9%.

And the GI50 ([39]; SNB-75)?
The GI50 was 11.9 µM.

What about the inhibition at 10 µM ([39]; SNB-75, read-out: percent growth inhibition) of the same compound?
The inhibition at 10 µM was 18.2%.

And the GI50 ([40]; HCT-15)?
The GI50 was 4.63 µM.

And the inhibition at 10 µM ([40]; HCT-15, read-out: percent growth inhibition)?
The inhibition at 10 µM was 140%.

What about the GI50 ([41]; PC-3) of the same compound?
Its GI50 is 12.3 µM.

And the inhibition at 10 µM ([41]; PC-3, read-out: percent growth inhibition)?
The inhibition at 10 µM was 81.8%.

What about the GI50 ([42]; HOP-62) of the same compound?
Its GI50 is 18.9 µM.

And the inhibition at 10 µM ([42]; HOP-62, read-out: percent growth inhibition)?
The inhibition at 10 µM was 93.7%.

Source: PMC11003488 (Journal of Enzyme Inhibition and Medicinal Chemistry, 2023)
